Laboratory results: patent publication US12528783B2, “PqsR inverse agonists” (priority 2020, dated 2026)

Columns and labels:
[1] = test system: signal molecule production (HHQ, PQS); conditions: at 15 μM; cited from earlier work
[2] = test system: virulence factor pyocyanin production; conditions: in cellulo; read-out: inhibition of virulence factor pyocyanin production IC50; cited from earlier work
[3] = test system: production of signal molecules HHQ and PQS; conditions: QS inhibitors targeting PqsA; read-out: IC50, reduction of production of signal molecules HHQ and PQS; cited from earlier work
[4] = Metabolic stability in mouse liver microsomes (MLM); format: in vitro ADME; conditions: 1 μM compound, 0.5 mg/mL MLM, 1 mM NADPH, 37° C., read-out: half-life (t1/2) towards MLM
Procedure: For the evaluation of phase I metabolic stability, the compound (1 μM) was incubated with 0.5 mg/mL MLM (Corning) and 1 mM NADPH at 37° C. for 0, 5, 10, 15 and 30 min. The metabolic stability of Verapamil, Diphenhydramine and Benzydamine (1 μM each) were determined in parallel to confirm the enzymatic activity of the MLM. The incubation was stopped by addition of 2 volumes of acetonitrile containing internal standard (1 μM Leucine Enkephaline). Samples were centrifuged (15 min, 3,500 rpm). Concentration of the remaining test compound at the different time points was analyzed by HPLC-MS/MS and used to determine half-life (t1/2).

[5] = test system: P. aeruginosa pyocyanin production; experiment: Pyocyanin assay; format: cell-based; conditions: Pseudomonas aeruginosa, PA14, 16 h, read-out: IC50-value towards pyocyanin production, PA14 in PPGAS medium, 16 h
Procedure: Inhibition of P. aeruginosa pyocyanin production by compounds was determined photometrically as described before. In short, an overnight culture of PA14 in PPGAS medium was washed, diluted in medium to a start OD600 of 0.02, and incubated for 16 h (37° C., 200 rpm, relative humidity 75%) in the presence of test compounds. Then, cultures were extracted with chloroform and re-extracted with 0.2 M HCl. Protonated red colored pyocyanin was determined by measuring OD520 and normalizing to OD600.

[6] = Kinetic Turbidimetric Aqueous Solubility; format: physicochemical; conditions: aqueous buffer, kinetic from dmso stock, PBS buffer, room temperature
Procedure: Kinetic Turbidimetric Aqueous Solubility at room temperature for 5 min. Test compound was diluted in PBS buffer to give a range of concentrations (typically 0.4, 2, 4, 20, 40, 100, and 200 μM, final DMSO concentration 2%) and incubated at room temperature for 5 min. Absorbance was measured at a wavelength of 620 nm and the solubility was estimated from the concentration of test compound that produces an increase in absorbance above the vehicle control (i.e., […]). Data was analyzed by fitting a four parameter sigmoidal function to the measured and normalized absorbances and AUC calculation providing access to Log S (decadic logarithm of the solubility).

PqsR = biological target: T1, PqsR (Pseudomonas aeruginosa, UniProt Q9I4X0); experiment: PqsR inverse agonistic activity, reporter gene assay in E. coli; format: cell-based
T1 construct: expressed in transfected cells; host or cells: Escherichia coli DH5a carrying pEAL08-2
Procedure: Inhibition of pqsR-dependent gene expression of test compounds was determined in an E. coli based-galactosidase reporter gene assay. Escherichia coli DH5a was transfected with pEAL08-2 plasmid encoding pqsR under control of promoter tac and β-galactosidase reporter gene lacZ under control of promoter pqsA. Antagonistic effects of compounds were evaluated in the presence of/in competition to 50 nM PQS. A positive control was used to ensure the reliability of individual assays. First, PQS was diluted in methanol and added to the wells of a glass coated 96-deep-well plate, and the solvent was evaporated. Then, compounds were added in 5 μL DMSO to final concentrations of 0.001-10 μM. Overnight cultures of E. coli DH5a×pEAL08-2 were diluted 1:100 in LB medium with ampicillin (50 μg/ml) and incubated at 37° C. with shaking until it reached an OD600 of 0.2. Finally, 995 μL of culture was added to each well and the β-galactosidase activity was determined by ortho-nitrophenyl-β-galactoside conversion in permeabilized cells after a 2.5 h incubation period (37° C., 180 rpm). OD600, OD420, and OD550 were measured using POLARstar Omega (BMG Labtech, Ortenberg, Germany), and the activity was expressed as ratio of the slope of B-galactosidase activity between basal control (no PQS) and solvent control. IC50 values of antagonists were determined by variation of the concentration of the test compounds.

T1 sequence (Q9I4X0 whole entry): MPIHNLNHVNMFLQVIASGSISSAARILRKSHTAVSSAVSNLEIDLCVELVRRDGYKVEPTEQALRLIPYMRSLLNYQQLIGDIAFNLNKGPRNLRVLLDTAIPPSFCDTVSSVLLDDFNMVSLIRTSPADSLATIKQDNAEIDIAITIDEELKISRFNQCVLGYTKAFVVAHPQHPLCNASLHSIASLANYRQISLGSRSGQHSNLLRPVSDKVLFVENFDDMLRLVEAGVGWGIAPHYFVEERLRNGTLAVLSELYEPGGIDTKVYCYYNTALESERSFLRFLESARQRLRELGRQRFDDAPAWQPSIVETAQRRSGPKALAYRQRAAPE

Structure (SMILES) | reduction of HHQ production [1] [%] | reduction of PQS production [1] [%] | IC50 [2] [nM] | IC50 [3] [nM] | half-life at 1 μM [4] [h] | IC50 [5] [nM] | solubility at 5 min [6] [µM] | IC50 (PqsR) [nM]
CCCCCCCc1[nH]c2ccc([N+](=O)[O-])cc2c(=O)c1C(N)=O [2-heptyl-6-nitro-4-oxo-1,4-dihydroquinoline-3-carboxamide] | 54 | 37 | 2000 | – | – | – | – | –
Nc1cccc(F)c1C(=O)O [Compound 6FABA] | – | – | – | ~100000 | – | – | – | –
O=[N+]([O-])c1cc(-c2ncc(CNc3cc(Cl)nc(C(F)(F)F)c3)cn2)ccc1Cl [Compound 08] | – | – | – | – | > 1 | 101 to 200 | > 10 | –
O=[N+]([O-])c1cccc(-c2ncc(CNc3cc(Cl)nc(C(F)(F)F)c3)cn2)c1 [Compound 09] | – | – | – | – | 0.517 to 1 | 201 to 500 | > 10 | –
NC(=O)c1cccc(Nc2ccc3[nH]c(CSc4ccnc(C(F)(F)F)c4)nc3c2)c1 [Compound 36] | – | – | – | – | 0.517 to 1 | – | > 50 | 251 to 1000
FC(F)c1cccc(Nc2ccc3[nH]c(CSc4ccnc(C(F)(F)F)c4)nc3c2)c1 [Compound 37] | – | – | – | – | > 1 | 101 to 200 | > 10 | ≤ 50
Fc1ccc(Nc2ccc3[nH]c(CSc4ccnc(C(F)(F)F)c4)nc3c2)c(F)c1 [Compound 45] | – | – | – | – | > 1 | 101 to 200 | > 25 | ≤ 50
